# Where “and” joins values, the source holds several entries; their conditions need not be identical. Identical values can stand only once.
# Conditions: [M+Na]+; instrument: DT; single field, calibrated with ESI Low Concentration Tuning Mix (Agilent)
row,Structure (SMILES),collision cross section (N2) [Å²]
1,O=P(O)(O)O[C@H]1O[C@H](CO)[C@H](O)[C@H](O)[C@H]1O [GALACTOSE 1-PHOSPHATE],157.7
2,Nc1ncnc2c1ncn2[C@@H]1O[C@H](COP(=O)(O)OP(=O)(O)O[C@H]2O[C@H](CO)[C@@H](O)[C@H](O)[C@H]2O)[C@@H](O)[C@H]1O [ADP-GLUCOSE],224.9
3,Nc1ncnc2c1ncn2C1OC(COP(=O)(O)OP(=O)(O)OCC2OC(O)C(O)C2O)C(O)C1O (stereo not given) [ADENOSINE DIPHOSPHATE RIBOSE],217.5
4,O=C(O)CC(O)(CC(=O)O)C(=O)O [CITRATE],143.1
5,CCOC(=O)Cc1c[nH]c2ccccc12 [ETHYL 3-INDOLEACETATE],153.6
6,NCCc1c[nH]c2ccc(O)cc12 [SEROTONIN],146.9

# The remaining lines, values ahead:
row,collision cross section (N2) [Å²],Structure (SMILES)
1,138.3,N[C@@H](Cc1ccccc1)C(=O)O [PHENYLALANINE]
2,181.9,CC1=C(/C=C/C(C)=C/C=C/C(C)=C/C(=O)O)C(C)(C)CCC1 [RETINOATE]
3,198.7,C[C@H](CCC(=O)O)[C@H]1CC[C@H]2[C@@H]3[C@@H](O)C[C@@H]4C[C@H](O)CC[C@]4(C)[C@H]3CC[C@]12C [URSODEOXYCHOLATE]
4,163.4,CC[C@H](NC(=O)CC[C@H]([NH3+])C(=O)[O-])C(=O)NCC(=O)[O-] [OPHTHALMATE]
5,209.4,CCCCCCCCCCCC(=O)O[C@H](CC(=O)[O-])C[N+](C)(C)C [LAUROYLCARNITINE]
6,158.5,CC(=O)NC(Cc1c[nH]c2ccccc12)C(=O)O (stereo not given) [N-ACETYLTRYPTOPHAN]
7,176,OC[C@H]1O[C@H](OC[C@H]2OC(O)(CO)[C@@H](O)[C@@H]2O)[C@H](O)[C@@H](O)[C@@H]1O (stereo not given in full) [PALATINOSE]

# Same assay, conditions: [M+]+; instrument: DT; single field, calibrated with ESI Low Concentration Tuning Mix (Agilent)
row,collision cross section (N2) [Å²],Structure (SMILES)
1,126.2,C[n+]1cccc(C(N)=O)c1 [1-METHYLNICOTINAMIDE]

# Same assay, conditions: [M-H]-; instrument: DT; single field, calibrated with ESI Low Concentration Tuning Mix (Agilent)
row,Structure (SMILES),collision cross section (N2)
1,Cc1cc2nc3c(=O)[nH]c(=O)nc-3n(C[C@H](O)[C@H](O)[C@H](O)COP(=O)(O)OP(=O)(O)OC[C@H]3O[C@@H](n4cnc5c(N)ncnc54)[C@H](O)[C@@H]3O)c2cc1C [FAD],238.7 Å²
2,NC(N)=NCCC[C@H](N)C(=O)O [ARGININE],136.4 Å²
3,NC(CS(=O)(=O)O)C(=O)O (stereo not given) [CYSTEATE],123 Å²
4,O=C(O)[C@H]1O[C@H](O)[C@H](O)[C@@H](O)[C@H]1O [GALACTURONATE],131.3 Å²
5,Nc1ccn([C@H]2C[C@H](O)[C@@H](CO)O2)c(=O)n1 [DEOXYCYTIDINE],148.7 Å²
6,CS(=N)(=O)CCC(N)C(=O)O (stereo not given) [METHIONINE SULFOXIMINE],136.2 Å²
7,"N[C@@H](Cc1cc(I)c(Oc2ccc(O)cc2)c(I)c1)C(=O)O [3,5-DIIODO-L-THYRONINE]",188.2 Å²
8,C[C@H]1O[C@@H](n2cnc3c(N)ncnc32)[C@H](O)[C@@H]1O [5'-DEOXYADENOSINE],154.8 Å²
9,"O=C(O)c1ccc([O-])c(O)c1 [3,4-DIHYDROXYBENZOATE]",122.5 Å²
10,C[C@H](O)[C@H](N)C(=O)O [ALLOTHREONINE],119.3 Å²
11,O=Cc1cccc(O)c1 [3-HYDROXYBENZALDEHYDE],118 Å²
12,O=P(O)(O)O[C@H]1O[C@H](CO)[C@H](O)[C@H](O)[C@H]1O [GALACTOSE 1-PHOSPHATE],148.2 Å²
13,Nc1ncnc2c1ncn2[C@@H]1O[C@H](COP(=O)(O)OP(=O)(O)O[C@H]2O[C@H](CO)[C@@H](O)[C@H](O)[C@H]2O)[C@@H](O)[C@H]1O [ADP-GLUCOSE],217.5 Å²
14,Nc1ncnc2c1ncn2C1OC(COP(=O)(O)OP(=O)(O)OCC2OC(O)C(O)C2O)C(O)C1O (stereo not given) [ADENOSINE DIPHOSPHATE RIBOSE],202.3 Å² and 207.2 Å²
15,O=C(O)CC(O)(CC(=O)O)C(=O)O [CITRATE],127.1 Å²
16,CCOC(=O)Cc1c[nH]c2ccccc12 [ETHYL 3-INDOLEACETATE],145.6 Å²
17,O=C(O)c1ccnc2ccccc12 [4-QUINOLINECARBOXYLATE],134.3 Å²
18,Cc1ccc(O)c(O)c1 [4-METHYLCATECHOL],121 Å²
19,O=C([O-])CCc1ccccc1O [3-(2-HYDROXYPHENYL)PROPANOATE],133.2 Å²
20,Nc1nc(=O)c2ncn([C@H]3C[C@H](O)[C@@H](COP(=O)(O)OP(=O)(O)OP(=O)(O)O)O3)c2[nH]1 [DGTP],191.4 Å²

# Further lines, results first:
row,collision cross section (N2),Structure (SMILES)
1,127.2 Å²,CC(=O)N[C@@H](CO)C(=O)O [N-ACETYLSERINE]
2,174.8 Å²,CCCCC/C=C\C/C=C\C/C=C\CCCCC(=O)[O-] [GAMMA-LINOLENATE]
3,128.6 Å²,O=C(O)Cc1ccc(O)cc1 [P-HYDROXYPHENYLACETATE]
4,121.3 Å² and 121.4 Å²,O=C(O)CCCC(=O)O [GLUTARATE]
5,124 Å²,CN[C@H](CC(=O)O)C(=O)O [N-METHYLASPARTATE]
6,152.5 Å²,CC(=O)N[C@@H]1[C@@H](O)[C@H](O)[C@@H](CO)O[C@H]1O [N-ACETYLGLUCOSAMINE]
7,124.1 Å²,O=C1CC[C@@H](C(=O)O)N1 [OXOPROLINE]
8,135.5 Å²,NC(=O)Cc1c[nH]c2ccccc12 [INDOLE-3-ACETAMIDE]
9,172.9 Å²,O=c1ccn([C@@H]2O[C@H](COP(=O)(O)OP(=O)(O)O)[C@@H](O)[C@H]2O)c(=O)[nH]1 [URIDINE 5'-DIPHOSPHATE]
10,131.7 Å²,O=C(O)[C@H]1OC(O)[C@H](O)[C@@H](O)[C@@H]1O (stereo not given in full) [GLUCURONATE]
11,148.1 Å²,N[C@@H]1[C@@H](O)[C@H](O)[C@@H](COP(=O)(O)O)O[C@@H]1O [GLUCOSAMINE 6-PHOSPHATE]
12,133.3 Å²,O=C(O)[C@@H](O)[C@@H](O)[C@H](O)[C@@H](O)C(=O)O [SACCHARATE]
13,136.3 Å²,O=C(O)C1=C[C@@H](O)[C@@H](O)[C@H](O)C1 [SHIKIMATE]
14,132.4 Å²,O=C(O)Cc1cc(O)ccc1O [HOMOGENTISATE]
15,142 Å²,CCC[C@H](N)C(=O)O [NORVALINE]
16,133.9 Å²,Cc1ncc(CO)c(CN)c1O [PYRIDOXAMINE]
17,146.2 Å²,O=P(O)(O)OC[C@H]1OC(O)[C@@H](O)[C@@H](O)[C@@H]1O (stereo not given in full) [MANNOSE 6-PHOSPHATE]
18,139.4 Å²,N[C@@H](Cc1ccccc1)C(=O)O [PHENYLALANINE]
19,200.9 Å²,C[C@H](CCC(=O)O)[C@H]1CC[C@H]2[C@@H]3[C@@H](O)C[C@@H]4C[C@H](O)CC[C@]4(C)[C@H]3CC[C@]12C [URSODEOXYCHOLATE]
20,160.9 Å²,CC[C@H](NC(=O)CC[C@H]([NH3+])C(=O)[O-])C(=O)NCC(=O)[O-] [OPHTHALMATE]
21,137.6 Å²,O=C(O)C(=O)Cc1c[nH]c2ccccc12 [INDOLE-3-PYRUVATE]
22,114.5 Å²,Oc1ccccc1O [PYROCATECHOL]
23,112.9 Å²,O=c1cc[nH]c(=O)[nH]1 [URACIL]
24,158.3 Å²,CC(=O)NC(Cc1c[nH]c2ccccc12)C(=O)O (stereo not given) [N-ACETYLTRYPTOPHAN]
25,177.9 Å²,OC[C@H]1O[C@H](OC[C@H]2OC(O)(CO)[C@@H](O)[C@@H]2O)[C@H](O)[C@@H](O)[C@@H]1O (stereo not given in full) [PALATINOSE]
26,150.5 Å²,CC(C)=CCNc1ncnc2nc[nH]c12 [N6-(DELTA2-ISOPENTENYL)-ADENINE]
